Measurements taken from paper PMC8026324, “In Vitro Antiplasmodial, Heme Polymerization, and Cytotoxicity of Hydroxyxanthone Derivatives” (Journal of Tropical Medicine, 2021).

Assays:
[1] = tested on: MCF-7; design: method as in earlier work; details: cited from earlier work
[2] = tested on: WIDR; design: method as in earlier work; details: cited from earlier work
[3] = tested on: Plasmodium falciparum 3D-7 (chloroquine-sensitive strain); test: In vitro antiplasmodial activity assay, microscopic method, strain 3D-7; format: cell-based; details: for IC50: 72 hours incubation, microscopic method, read-out: IC50 on P. falciparum 3D-7; for antiplasmodial activity category on P. falciparum 3D-7: category by IC50
Experimental: (§1) The test of antiplasmodial activity began with the culture of P. falciparum 3D-7 and FCR-3 using the modified Trager and Jensen method. The plasmodium was cultured in human O red blood cells diluted to 3% haematocrit in RPMI 1640 medium complemented with 10% human O serum. The medium was made by adding 10.43 g of powder RPMI 1640, 6 g HEPES, 2 g NaHCO3, 25 mg gentamycin, and sterile distilled water up to 1 L. The medium pH was adjusted so that it reached ±7.2. It was sterilized using a 0.22 μm filter and stored at 4°C. The complete plasmodium culture medium was made by adding human serum with a concentration of 10% in the medium. The plasmodium culture was incubated in candle jar in an incubator with a temperature of 37°C and was observed every 24 hours.
(§2) The plasmodium was synchronized to obtain the ring stage by adding 5% of D-sorbitol. The plasmodium was transferred from culture flask to a conical tube, and then it was centrifuged with a speed of 1000 rpm for 10 minutes. After the supernatant was disposed, the sterile 5% sorbitol was added and incubated for 10 minutes at a temperature of 37°C. The plasmodium suspension was centrifuged again; the supernatant was disposed and the plasmodium was washed by adding culture medium. Then, the plasmodium suspension was centrifuged again, and the supernatant was discarded, resulting in a plasmodium in ring stage only. The parasitemia was calculated from a thin blood preparation. The test used 1% parasitemia at 2% haematocrit in RPMI medium which complemented with 10% human O serum.
(§3) Each testing compound was dissolved in RPMI medium. The testing compound in various concentrations with volume of 100 μL was incorporated into the 96-well microplate, and then 100 μL of Plasmodium suspension was added. Each series of concentrations was replicated three times. The microplate was incubated at a temperature of 37°C for 72 hours. At the end of the incubation, a thin blood smear was made using 10% Giemsa stain and observed under a light microscope at 1000x magnification. The percentage of parasitemia (counting a minimum of 1,000 erythrocytes) was calculated from the preparation of thin blood and then used to calculate the percentage of plasmodium growth inhibition. […] Antiplasmodial activity is expressed as IC50, which is the concentration of a compound that is required for 50% inhibition of plasmodium growth. The IC50 value was calculated by probit analysis using SPSS software (IBM Corp., Chicago). The lower the IC50 value obtained, the greater the antiplasmodial activity.

[4] = tested on: Hela; design: method as in earlier work; details: cited from earlier work
[5] = tested on: Plasmodium falciparum FCR-3 (chloroquine-resistant strain); test: In vitro antiplasmodial activity assay, microscopic method, strain FCR-3; format: cell-based; details: for IC50: 72 hours incubation, microscopic method, read-out: IC50 on P. falciparum FCR-3; for antiplasmodial activity category on P. falciparum FCR-3: category by IC50
Experimental: as §1, §2, §3

[6] = tested on: Vero cells; test: In vitro cytotoxicity test, MTT assay on Vero cell line; format: cell-based; details: for IC50: MTT assay; for Selectivity index 3D-7: ratio IC50 on Vero cell/IC50 on P. falciparum 3D-7; for Selectivity index FCR-3: ratio IC50 on Vero cell/IC50 on P. falciparum FCR-3
Experimental: The in vitro cytotoxicity test was conducted using the 3-(4,5-dimethylthiazol-2-yl)2,5-diphenyltetrazolium bromide (MTT) assay method on Vero cell line culture using the Anderson et al.'s modified method.
The cell was removed from the cryo medium. Then, the cell was thawed at 37°C. The liquid cell was subsequently transferred to the tube and a culture medium was added to a volume of 10 mL. Then, the suspension was centrifuged for 15 minutes so that it would form cell pellets. The supernatant was removed and 1 mL of culture medium was added to the cell pellets. Finally, the suspension was transferred to the Petri dish and incubated in the incubator with 5% of CO2 at 37°C.
The medium of Vero cell culture was removed, and then the cell was washed using a PBS solution with a volume of PBS ± 1/2 of the initial medium volume. This step was done twice and 1 mL of trypsin 0.25% was added. Subsequently, the cell was incubated in the CO2 incubator at 37°C for 3 minutes. Then, the cell was resuspended using 2 mL of culture medium and PBS solution was added up to 10 mL. The suspension was centrifuged for 15 minutes so that it formed pellets. Pellets were added with 1 mL of culture medium and resuspended. Take 10 μL of the cell suspension and density of cells was calculated.
Then, the cell was added with culture medium to 10 mL. A total of 100 μL of such suspensions was transferred into each well of the 96-well microplate, but three of the wells were emptied as medium controls. Subsequently, the microplate was incubated in a 5% CO2 incubator at 37°C.
Each hydroxyxanthone derivative compound was dissolved in DMSO, and a variety of concentrations were prepared in the medium. Each concentration of the testing compound was added into the 96-well microplate triplicately. Cell control and medium control were not given a testing compound solution. The medium control remained blank, while the cell control contained culture medium only. […] Then, the cell was incubated in a 5% CO2 incubator at 37°C for 24 hours.
After the cell was incubated for 24 hours, the medium was discarded and washed with PBS. Then, each well was added with 100 μL of 5 mg/mL of MTT solution. The 96-well microplate was incubated again in the incubator of CO2 at 37°C for 4 hours. Then, 100 μL of 10% of SDS in 0.01 MHCl was added. The cells were placed in a dark room at room temperature for 24 hours.
The absorbance was measured using the enzyme-linked immunosorbent assay (ELISA) reader at 595 nm wavelength. The cytotoxicity test on the Vero cells was done by calculating the percentage of Vero cell inhibition of the absorption value of the test compound, cell control, and medium control. The cytotoxic effect was expressed as IC50. The IC50 value was obtained from the probit analysis by using SPSS software (IBM Corp., Chicago). The degree of selectivity was expressed as a selectivity index. The selectivity index was obtained from the ratio between the IC50 cytotoxic effect on Vero cells and IC50 antiplasmodial activity on Plasmodium. A compound is said to be safe if the value of the selectivity index is >10 [20].

[7] = Chlorocebus sabaeus, Vero, 24 h, 24 hours incubation

## O=c1c2ccc(O)cc2oc2cccc(O)c12 [HX2, 1,6-dihydroxyxanthone]
[1]
  cytotoxicity on MCF-7 (in words): weak
[2]
  cytotoxicity on WIDR (in words): weak
[3]; Plasmodium falciparum, 54.78 μM, read-out: Growth inhibition of P. falciparum Strain 3D-7
  inhibition at 54.78 µM: 49.2 ± 1.61%
[3]; Plasmodium falciparum, 109.55 μM, read-out: Growth inhibition of P. falciparum Strain 3D-7
  inhibition at 109.55 µM: 54.8 ± 2.43%
[3]; Plasmodium falciparum, 219.11 μM, read-out: Growth inhibition of P. falciparum Strain 3D-7
  inhibition at 219.11 µM: 67.16 ± 0.601%
[3]; Plasmodium falciparum, 438.21 μM, read-out: Growth inhibition of P. falciparum Strain 3D-7
  inhibition at 438.21 µM: 73.62 ± 0.713%
[3]; Plasmodium falciparum, 876.42 μM, read-out: Growth inhibition of P. falciparum Strain 3D-7
  inhibition at 876.42 µM: 90.56 ± 0.665%
[3]; Plasmodium falciparum
  IC50: 71.78 ± 0.31 µM
[3]
  antiplasmodial activity category on P. falciparum 3D-7: moderate (moderate (IC50 20–100 μM))
[4]
  cytotoxicity on Hela (in words): weak
[5]; Plasmodium falciparum, FCR3, 54.78 μM, read-out: Growth inhibition of P. falciparum Strain FCR-3
  inhibition at 54.78 µM: 47.2 ± 0.687%
[5]; Plasmodium falciparum, FCR3, 109.55 μM, read-out: Growth inhibition of P. falciparum Strain FCR-3
  inhibition at 109.55 µM: 50.2 ± 2.63%
[5]; Plasmodium falciparum, FCR3, 219.11 μM, read-out: Growth inhibition of P. falciparum Strain FCR-3
  inhibition at 219.11 µM: 67.1 ± 2.76%
[5]; Plasmodium falciparum, FCR3, 438.21 μM, read-out: Growth inhibition of P. falciparum Strain FCR-3
  inhibition at 438.21 µM: 74.2 ± 1.32%
[5]; Plasmodium falciparum, FCR3, 876.42 μM, read-out: Growth inhibition of P. falciparum Strain FCR-3
  inhibition at 876.42 µM: 87.6 ± 2.24%
[5]; Plasmodium falciparum, FCR3
  IC50: 81.8 ± 5.78 µM
[5]
  antiplasmodial activity category on P. falciparum FCR-3: moderate (moderate (IC50 20–100 μM))
[6]; 24 hours incubation
  IC50: 308 µM
[6]; [7]
  IC50: 390 µM
[6]; Chlorocebus sabaeus, Vero, 24 h, 54.13 μM, read-out: Vero cell growth inhibition after 24 hours incubation
  inhibition at 54.13 µM: 15.6%
[6]; Chlorocebus sabaeus, Vero, 24 h, 108.26 μM, read-out: Vero cell growth inhibition after 24 hours incubation
  inhibition at 108.26 µM: 31.8%
[6]; Chlorocebus sabaeus, Vero, 24 h, 216.86 μM, read-out: Vero cell growth inhibition after 24 hours incubation
  inhibition at 216.86 µM: 38.9%
[6]; Chlorocebus sabaeus, Vero, 24 h, 433.73 μM, read-out: Vero cell growth inhibition after 24 hours incubation
  inhibition at 433.73 µM: 59.8%
[6]; Chlorocebus sabaeus, Vero, 24 h, 867.45 μM, read-out: Vero cell growth inhibition after 24 hours incubation
  inhibition at 867.45 µM: 67%
[6]; Chlorocebus sabaeus, Vero, 24 h, 1734.91 μM, read-out: Vero cell growth inhibition after 24 hours incubation
  inhibition at 1734.91 µM: 86.1%
[6]; Chlorocebus sabaeus, Vero
  IC50: 88.9 µg/mL
[6]
  Selectivity index 3D-7: 4.30
  Selectivity index FCR-3: 3.77

## O=c1c2ccc(O)c(O)c2oc2cccc(O)c12 [HX3, 1,5,6-trihydroxyxanthone]
[1]
  cytotoxicity on MCF-7 (in words): weak
[2]
  cytotoxicity on WIDR (in words): weak
[3]; Plasmodium falciparum, 25.59 μM, read-out: Growth inhibition of P. falciparum Strain 3D-7
  inhibition at 25.59 µM: 47.3 ± 0.611%
[3]; Plasmodium falciparum, 51.19 μM, read-out: Growth inhibition of P. falciparum Strain 3D-7
  inhibition at 51.19 µM: 63.4 ± 0.421%
[3]; Plasmodium falciparum, 102.38 μM, read-out: Growth inhibition of P. falciparum Strain 3D-7
  inhibition at 102.38 µM: 68.89 ± 0.151%
[3]; Plasmodium falciparum, 204.75 μM, read-out: Growth inhibition of P. falciparum Strain 3D-7
  inhibition at 204.75 µM: 80.92 ± 0.679%
[3]; Plasmodium falciparum, 409.5 μM, read-out: Growth inhibition of P. falciparum Strain 3D-7
  inhibition at 409.5 µM: 87.4 ± 1.15%
[3]; Plasmodium falciparum
  IC50: 27.64 ± 0.19 µM
[3]
  antiplasmodial activity category on P. falciparum 3D-7: moderate (moderate (IC50 20–100 μM))
[4]
  cytotoxicity on Hela (in words): weak
[5]; Plasmodium falciparum, FCR3, 25.59 μM, read-out: Growth inhibition of P. falciparum Strain FCR-3
  inhibition at 25.59 µM: 38.3 ± 1.19%
[5]; Plasmodium falciparum, FCR3, 51.19 μM, read-out: Growth inhibition of P. falciparum Strain FCR-3
  inhibition at 51.19 µM: 43.13 ± 0.126%
[5]; Plasmodium falciparum, FCR3, 102.38 μM, read-out: Growth inhibition of P. falciparum Strain FCR-3
  inhibition at 102.38 µM: 51.92 ± 0.466%
[5]; Plasmodium falciparum, FCR3, 204.75 μM, read-out: Growth inhibition of P. falciparum Strain FCR-3
  inhibition at 204.75 µM: 71.9 ± 7.84%
[5]; Plasmodium falciparum, FCR3, 409.5 μM, read-out: Growth inhibition of P. falciparum Strain FCR-3
  inhibition at 409.5 µM: 83 ± 1.4%
[5]; Plasmodium falciparum, FCR3
  IC50: 64.1 ± 5.08 µM
[5]
  antiplasmodial activity category on P. falciparum FCR-3: moderate (moderate (IC50 20–100 μM))
[6]; 24 hours incubation
  IC50: 224 µM
[6]; [7]
  IC50: 230 µM
[6]; Chlorocebus sabaeus, Vero, 24 h, 63.88 μM, read-out: Vero cell growth inhibition after 24 hours incubation
  inhibition at 63.88 µM: 20.7%
[6]; Chlorocebus sabaeus, Vero, 24 h, 127.76 μM, read-out: Vero cell growth inhibition after 24 hours incubation
  inhibition at 127.76 µM: 39.6%
[6]; Chlorocebus sabaeus, Vero, 24 h, 255.94 μM, read-out: Vero cell growth inhibition after 24 hours incubation
  inhibition at 255.94 µM: 55.7%
[6]; Chlorocebus sabaeus, Vero, 24 h, 511.88 μM, read-out: Vero cell growth inhibition after 24 hours incubation
  inhibition at 511.88 µM: 68%
[6]; Chlorocebus sabaeus, Vero, 24 h, 1023.75 μM, read-out: Vero cell growth inhibition after 24 hours incubation
  inhibition at 1023.75 µM: 79.9%
[6]; Chlorocebus sabaeus, Vero, 24 h, 2047.50 μM, read-out: Vero cell growth inhibition after 24 hours incubation
  inhibition at 2047.5 µM: 88.9%
[6]; Chlorocebus sabaeus, Vero
  IC50: 56.2 µg/mL
[6]
  Selectivity index 3D-7: 8.12
  Selectivity index FCR-3: 3.50
